Test results reported in patent US8471005B2 (Cephalon, Inc., priority 2008, dated 2013).
Where two headings read alike, the source gives them in different places.

Columns and labels:
ALK = target: T1, ALK (Homo sapiens, UniProt Q9UM73); test: ALK Kinase Assay (ELISA/TRF, PLC-γ substrate); format: biochemical; details: read-out: ALK Potency
T1 construct: host or cells: baculovirus expression system
Summary of the method: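 Read-out is time-resolved fluorescence from a Eu-N1-labeled PT66 antibody that binds phosphorylated PLC-γ, the substrate coated at 10 μg/mL in TBS. ALK at 30 ng/ml starts the reaction, which runs 15 minutes at 37° C.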

JAK2 = target: T2, JAK2 (Homo sapiens, UniProt O60674); test: Recombinant Human JAK2 Kinase Assay (TRF); format: biochemical; details: read-out: JAK2 Potency
T2 construct: host or cells: baculovirus expression system
Summary of the method: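 Baculovirus-expressed JAK2 (15 ng/ml) phosphorylated a biotinylated 15-mer peptide captured on Neutravidin-coated plates, in 20 mM HEPES pH 7.2 with 0.2 μM ATP, 1 mM MnCl2, 0.1% BSA and 2.5% DMSO. Reaction ran 20 min at room temperature; phosphopeptide was detected by time-resolved fluorescence with Eu-N1-labelled PY100 antibody.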

[1] = ALK kinase inhibition, 1 μM ATP
[2] = JAK2 kinase inhibition, 0.2 μM ATP

T2 sequence (O60674 whole entry): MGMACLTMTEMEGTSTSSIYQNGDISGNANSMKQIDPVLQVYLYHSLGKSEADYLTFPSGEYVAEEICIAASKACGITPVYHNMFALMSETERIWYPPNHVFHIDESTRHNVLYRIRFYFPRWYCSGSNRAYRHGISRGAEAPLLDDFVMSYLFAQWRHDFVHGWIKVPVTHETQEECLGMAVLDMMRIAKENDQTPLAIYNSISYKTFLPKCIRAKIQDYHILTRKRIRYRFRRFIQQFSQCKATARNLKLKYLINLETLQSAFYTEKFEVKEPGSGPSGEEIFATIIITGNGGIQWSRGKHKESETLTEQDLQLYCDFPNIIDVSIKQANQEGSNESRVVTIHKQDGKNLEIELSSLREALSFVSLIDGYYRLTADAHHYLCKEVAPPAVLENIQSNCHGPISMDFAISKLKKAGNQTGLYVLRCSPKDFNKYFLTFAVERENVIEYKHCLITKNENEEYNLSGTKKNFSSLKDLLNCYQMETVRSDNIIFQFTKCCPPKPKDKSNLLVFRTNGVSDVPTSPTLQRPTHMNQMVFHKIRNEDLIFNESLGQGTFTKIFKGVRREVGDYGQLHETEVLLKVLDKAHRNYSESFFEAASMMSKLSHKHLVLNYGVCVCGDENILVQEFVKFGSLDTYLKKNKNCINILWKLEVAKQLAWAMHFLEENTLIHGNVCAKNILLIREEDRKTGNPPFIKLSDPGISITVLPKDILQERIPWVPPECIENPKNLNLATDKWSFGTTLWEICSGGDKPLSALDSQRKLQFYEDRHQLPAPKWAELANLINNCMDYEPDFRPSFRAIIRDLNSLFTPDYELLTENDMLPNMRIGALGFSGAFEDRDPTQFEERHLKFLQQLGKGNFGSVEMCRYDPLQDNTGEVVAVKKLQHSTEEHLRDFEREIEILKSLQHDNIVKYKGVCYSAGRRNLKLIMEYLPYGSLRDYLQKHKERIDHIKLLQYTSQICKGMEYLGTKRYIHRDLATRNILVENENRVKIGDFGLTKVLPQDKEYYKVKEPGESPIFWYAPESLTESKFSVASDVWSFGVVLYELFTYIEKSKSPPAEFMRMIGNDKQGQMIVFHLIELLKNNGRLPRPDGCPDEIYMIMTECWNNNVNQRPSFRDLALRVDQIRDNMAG
T1 sequence (Q9UM73 19-1620): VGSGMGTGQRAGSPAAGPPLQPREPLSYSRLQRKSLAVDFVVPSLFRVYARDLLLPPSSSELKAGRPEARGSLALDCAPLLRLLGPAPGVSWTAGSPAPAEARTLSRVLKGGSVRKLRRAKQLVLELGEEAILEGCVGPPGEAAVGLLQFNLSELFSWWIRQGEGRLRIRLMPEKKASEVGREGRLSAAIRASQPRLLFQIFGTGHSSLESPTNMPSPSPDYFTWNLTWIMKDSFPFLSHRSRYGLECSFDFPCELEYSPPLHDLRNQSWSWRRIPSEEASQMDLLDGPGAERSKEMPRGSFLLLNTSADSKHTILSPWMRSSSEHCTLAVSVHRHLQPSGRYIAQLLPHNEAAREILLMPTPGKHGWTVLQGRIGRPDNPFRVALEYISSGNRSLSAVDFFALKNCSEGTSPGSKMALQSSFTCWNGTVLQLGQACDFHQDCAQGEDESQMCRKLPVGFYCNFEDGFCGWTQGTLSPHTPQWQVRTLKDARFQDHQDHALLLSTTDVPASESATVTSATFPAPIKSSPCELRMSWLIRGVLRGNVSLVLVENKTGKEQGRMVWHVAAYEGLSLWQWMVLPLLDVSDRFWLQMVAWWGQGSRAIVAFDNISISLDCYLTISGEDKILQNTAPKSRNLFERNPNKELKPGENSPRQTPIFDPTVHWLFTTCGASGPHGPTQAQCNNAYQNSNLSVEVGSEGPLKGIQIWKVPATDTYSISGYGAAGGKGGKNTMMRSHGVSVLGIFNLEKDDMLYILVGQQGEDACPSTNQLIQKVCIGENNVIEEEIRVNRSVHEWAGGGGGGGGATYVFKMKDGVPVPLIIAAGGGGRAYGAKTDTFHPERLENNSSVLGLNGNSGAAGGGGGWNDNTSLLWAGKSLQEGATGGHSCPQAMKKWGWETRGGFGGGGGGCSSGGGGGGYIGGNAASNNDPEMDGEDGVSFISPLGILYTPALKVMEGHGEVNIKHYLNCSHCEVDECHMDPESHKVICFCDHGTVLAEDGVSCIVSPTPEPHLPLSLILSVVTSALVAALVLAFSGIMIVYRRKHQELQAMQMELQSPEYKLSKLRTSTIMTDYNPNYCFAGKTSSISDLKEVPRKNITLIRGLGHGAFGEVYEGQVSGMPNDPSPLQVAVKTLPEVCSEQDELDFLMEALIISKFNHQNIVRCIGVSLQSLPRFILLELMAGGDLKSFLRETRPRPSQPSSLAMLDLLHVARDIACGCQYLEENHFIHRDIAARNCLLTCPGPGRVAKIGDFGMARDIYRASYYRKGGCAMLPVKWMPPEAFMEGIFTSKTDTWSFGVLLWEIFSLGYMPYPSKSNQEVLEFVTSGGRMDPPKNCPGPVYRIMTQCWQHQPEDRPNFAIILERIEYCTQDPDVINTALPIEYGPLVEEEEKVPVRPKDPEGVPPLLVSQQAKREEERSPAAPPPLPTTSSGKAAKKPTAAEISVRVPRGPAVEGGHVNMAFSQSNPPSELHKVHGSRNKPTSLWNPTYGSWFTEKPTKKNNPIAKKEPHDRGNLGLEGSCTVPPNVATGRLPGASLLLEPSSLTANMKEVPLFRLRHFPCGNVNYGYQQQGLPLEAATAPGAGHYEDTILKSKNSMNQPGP

Row | SMILES | IC50 (ALK; ALK Kinase Inhibition) | IC50 (JAK2; JAK2 Kinase Inhibition) | IC50 (ALK; [1]) | IC50 (JAK2; [2])
1 | Oc1ccc(-c2ccc3cnc(Nc4cccc(N5CCOCC5)c4)nn23)cn1 [Example 332, 5-[2-(3-Morpholin-4-yl-phenylamino)-pyrrolo[2,1-f][1,2,4]triazin-7-yl]-pyridin-2-ol] | > 10000 nM | > 10000 nM |  | 
2 | COc1cc(C2CCN(CC(N)=O)CC2)ccc1Nc1ncc2ccc(-c3ccccc3C#N)n2n1 [Example 517, 2-(4-{4-[7-(2-Cyano-phenyl)-pyrrolo[2,1-f][1,2,4]triazin-2-ylamino]-3-methoxy-phenyl}-piperidin-1-yl)-acetamide] |  |  | < 100 nM | 100 to 1000 nM
3 | COc1cc(N2CCC(N3CCOCC3)CC2)ccc1Nc1ncc2ccc(-c3cccnc3)n2n1 [Example 1170, [2-Methoxy-4-(4-morpholin-4-yl-piperidin-1-yl)-phenyl]-(7-pyridin-3-yl-pyrrolo[2,1-f][1,2,4]triazin-2-yl)-amine] |  |  | 100 to 1000 nM | < 100 nM
4 | CS(=O)(=O)c1cccc(-c2ccc3cnc(Nc4ccc5[nH]c(CN6CCN(CCO)CC6)nc5c4)nn23)c1 [Example 1539, 2-(4-{5-[7-(3-Methanesulfonyl-phenyl)-pyrrolo[2,1-f][1,2,4]triazin-2-ylamino]-1H-benzimidazol-2-ylmethyl}-piperazin-1-yl)-ethanol] | 1000 to 10000 nM | < 100 nM |  | 
5 | COc1cc(N2CCC(N3CCOCC3)CC2)ccc1Nc1ncc2ccc(-c3ccccc3NS(C)(=O)=O)n2n1 [Example 1450, N-(2-{2-[2-Methoxy-4-(4-morpholin-4-yl-piperidin-1-yl)-phenylamino]-pyrrolo[2,1-f][1,2,4]triazin-7-yl}-phenyl)-methanesulfonamide] | 100 to 1000 nM | 100 to 1000 nM |  | 
6 | COc1cc(C2CCN(C[C@@H](C)O)CC2)ccc1Nc1ncc2ccc(-c3ccccc3N(C)S(C)(=O)=O)n2n1 [Example 788, N-[2-(2-{4-[1-((R)-2-Hydroxy-propyl)-piperidin-4-yl]-2-methoxy-phenylamino}-pyrrolo[2,1-f][1,2,4]triazin-7-yl)-phenyl]-N-methyl-methanesulfonamide] |  |  | < 100 nM | 100 to 1000 nM
7 | COc1cc(C2CCN(C[C@@H](O)CO)CC2)c(F)cc1Nc1ncc2ccc(-c3ccccc3N(C)S(C)(=O)=O)n2n1 [Example 551, N-[2-(2-{4-[1-((R)-2,3-Dihydroxy-propyl)-piperidin-4-yl]-5-fluoro-2-methoxy-phenylamino}-pyrrolo[2,1-f][1,2,4]triazin-7-yl)-phenyl]-N-methyl-methanesulfonamide] |  |  | < 100 nM | 1000 to 10000 nM
8 | COc1ccc(-c2ccc3cnc(Nc4ccc(C5CN(C)CCN5C)cc4)nn23)cn1 (stereo not drawn) [Example 1530, [4-(1,4-Dimethyl-piperazin-2-yl)-phenyl]-[7-(6-methoxy-pyridin-3-yl)-pyrrolo[2,1-f][1,2,4]triazin-2-yl]-amine] | 100 to 1000 nM | < 100 nM |  | 
9 | COc1cc(N2CCN(C3CCOCC3)CC2)ccc1Nc1ncc2ccc(-c3ccccc3OC)n2n1 [Example 1472, [7-(2-Methoxy-phenyl)-pyrrolo[2,1-f][1,2,4]triazin-2-yl]-{2-methoxy-4-[4-(tetrahydro-pyran-4-yl)-piperazin-1-yl]-phenyl}-amine] | < 100 nM | < 100 nM |  | 
10 | COc1cc(Nc2ncc3ccc(-c4ccccc4N(C)S(C)(=O)=O)n3n2)ccc1C1CCN(CC(N)=O)CC1 [Example 914, 2-[4-(4-{7-[2-(Methanesulfonyl-methyl-amino)-phenyl]-pyrrolo[2,1-f][1,2,4]triazin-2-ylamino}-2-methoxy-phenyl)-piperidin-1-yl]-acetamide] |  |  | < 100 nM | < 100 nM
11 | CC(=O)N1CC(C)(C)c2ccc(Nc3ncc4ccc(-c5cccc(S(=O)(=O)NC(C)(C)C)c5)n4n3)cc21 [Example 1388, 3-[2-(1-Acetyl-3,3-dimethyl-2,3-dihydro-1H-indol-6-ylamino)-pyrrolo[2,1-f][1,2,4]triazin-7-yl]-N-tert-butyl-benzenesulfonamide] | 100 to 1000 nM | < 100 nM |  | 
12 | COc1cc(N2CCC(N(C)C)C2)ccc1Nc1ncc2ccc(-c3ccccc3OC)n2n1 (stereo not drawn) [Example 763, [4-(3-Dimethylamino-pyrrolidin-1-yl)-2-methoxy-phenyl]-[7-(2-methoxy-phenyl)-pyrrolo[2,1-f][1,2,4]triazin-2-yl]-amine] |  |  | < 100 nM | < 100 nM
13 | NC(=O)CN1CCC(c2ccc(Nc3ncc4ccc(-c5cccc(N6CCCS6(=O)=O)c5)n4n3)cc2)CC1 [Example 1512, 2-{4-[4-({7-[3-(1,1-Dioxido-1,2-thiazolidin-2-yl)phenyl]pyrrolo[2,1-f][1,2,4]triazin-2-yl}amino)phenyl]piperidin-1-yl}acetamide] | 100 to 1000 nM | < 100 nM |  | 
14 | COc1cc(N2CCCN(C)CC2)ccc1Nc1ncc2ccc(-c3ccccc3OC)n2n1 [Example 765, [2-Methoxy-4-(4-methyl-[1,4]diazepan-1-yl)-phenyl]-[7-(2-methoxy-phenyl)-pyrrolo[2,1-f][1,2,4]triazin-2-yl]-amine] |  |  | < 100 nM | 100 to 1000 nM
15 | COc1ccccc1-c1ccc2cnc(Nc3ccc4c(c3OC)CN(C3COC3)C4)nn12 [Example 851, (4-Methoxy-2-oxetan-3-yl-2,3-dihydro-1H-isoindol-5-yl)-[7-(2-methoxy-phenyl)-pyrrolo[2,1-f][1,2,4]triazin-2-yl]-amine] |  |  | 100 to 1000 nM | 100 to 1000 nM
16 | CS(=O)(=O)c1ccc(-c2ccc3cnc(Nc4ccc5c(c4)NC(=O)C(NC(=O)C(F)(F)F)CC5)nn23)cc1 (stereo not drawn) [Example 1174, 2,2,2-Trifluoro-N-{8-[7-(4-methanesulfonyl-phenyl)-pyrrolo[2,1-f][1,2,4]triazin-2-ylamino]-2-oxo-2,3,4,5-tetrahydro-1H-benzo[b]azepin-3-yl}-acetamide] |  |  | > 10000 nM | < 100 nM
17 | C[C@H](O)CN1CCN(c2cccc(Nc3ncc4ccc(-c5cccc(Cl)c5)n4n3)c2)CC1 [Example 212, (S)-1-(4-{3-[7-(3-Chloro-phenyl)-pyrrolo[2,1-f][1,2,4]triazin-2-ylamino]-phenyl}-piperazin-1-yl)-propan-2-ol] | < 100 nM | < 100 nM |  | 
18 | COc1cc(N2CCC(N(C)C)CC2)ccc1Nc1ncc2ccc(-c3ccc(S(C)(=O)=O)cc3)n2n1 [Example 477, [4-(4-Dimethylamino-piperidin-1-yl)-2-methoxy-phenyl]-[7-(4-methanesulfonyl-phenyl)-pyrrolo[2,1-f][1,2,4]triazin-2-yl]-amine] |  |  | < 100 nM | < 100 nM
19 | COc1ccc(CN2CCOCC2)cc1Nc1ncc2ccc(-c3ccccc3N(C)S(C)(=O)=O)n2n1 [Example 498, N-{2-[2-(2-Methoxy-5-morpholin-4-ylmethyl-phenylamino)-pyrrolo[2,1-f][1,2,4]triazin-7-yl]-phenyl}-N-methyl-methanesulfonamide] |  |  | 1000 to 10000 nM | 1000 to 10000 nM
20 | NC(=O)CN1CC(c2ccc(Nc3ncc4ccc(-c5cccc6c5OCC6)n4n3)cc2)C1 [Example 587, 2-(3-{4-[7-(2,3-Dihydro-benzofuran-7-yl)-pyrrolo[2,1-f][1,2,4]triazin-2-ylamino]-phenyl}-azetidin-1-yl)-acetamide] |  |  | < 100 nM | < 100 nM
21 | CS(=O)(=O)c1cccc(-c2ccc3cnc(Nc4ccc(C5(C#N)CCN(CC(N)=O)CC5)cc4)nn23)c1 [Example 1546, 2-(4-Cyano-4-{4-[7-(3-methanesulfonyl-phenyl)-pyrrolo[2,1-f][1,2,4]triazin-2-ylamino]-phenyl}-piperidin-1-yl)-acetamide] | 1000 to 10000 nM | < 100 nM |  | 
22 | COc1ccccc1-c1ccc2cnc(Nc3cc(OC)c(OC)c(OC)c3)nn12 [Example 142, [7-(2-Methoxy-phenyl)-pyrrolo[2,1-f][1,2,4]triazin-2-yl]-(3,4,5-trimethoxy-phenyl)-amine] | 100 to 1000 nM | < 100 nM |  | 
23 | CS(=O)(=O)c1cccc(-c2ccc3cnc(Nc4ccc(C5=CCN(CC(N)=O)CC5)c(C(F)(F)F)c4)nn23)c1 [Example 951, 2-(4-{4-[7-(3-Methanesulfonyl-phenyl)-pyrrolo[2,1-f][1,2,4]triazin-2-ylamino]-2-trifluoromethyl-phenyl}-3,6-dihydro-2H pyridin-1-yl) acetamide] |  |  | 100 to 1000 nM | < 100 nM
24 | CN1CCN(CCn2cc(Nc3ncc4ccc(-c5ccccc5N(C)S(C)(=O)=O)n4n3)cn2)CC1 [Example 1212, N-Methyl-N-[2-(2-{1-[2-(4-methyl-piperazin-1-yl)-ethyl]-1H-pyrazol-4-ylamino}-pyrrolo[2,1-f][1,2,4]triazin-7-yl)-phenyl]-methanesulfonamide] |  |  | 100 to 1000 nM | < 100 nM
25 | COc1cc(N2CCN(C)CC2)ccc1Nc1ncc2ccc(-c3ccccc3OC)n2n1 [Example 33, [2-Methoxy-4-(4-methyl-piperazin-1-yl)-phenyl]-[7-(2-methoxy-phenyl)-pyrrolo[2,1-f][1,2,4]triazin-2-yl]-amine] | < 100 nM | < 100 nM |  | 
26 | CN1CCN(c2cccc(Nc3ncc4ccc(-c5cnn(CC(N)=O)c5)n4n3)c2)CC1 [Example 978, 2-(4-{2-[3-(4-Methyl-piperazin-1-yl)-phenylamino]-pyrrolo[2,1-f][1,2,4]triazin-7-yl}-pyrazol-1-yl)-acetamide] |  |  | 100 to 1000 nM | < 100 nM
27 | CN1CCN(C(=O)C2CCN(c3ccc(Nc4ncc5ccc(-c6cnn(C)c6)n5n4)cc3)CC2)CC1 [Example 1188, (4-Methyl-piperazin-1-yl)-(1-{4-[7-(1-methyl-1H-pyrazol-4-yl)-pyrrolo[2,1-f][1,2,4]triazin-2-ylamino]-phenyl}-piperidin-4-yl)-methanone] |  |  | 100 to 1000 nM | < 100 nM
